# In PubChem BioAssay (NCI):
#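 GI50 marks 50% less growth. TGI: concentration producing complete growth inhibition.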
# Experiments:
# Test in all cases: NCI tumour cell line growth inhibition, 384-well format
# ACHN renal = system: ACHN renal
# MDA-MB-435 melanoma = system: MDA-MB-435 melanoma
# KM12 colon = system: KM12 colon
# HCT-116 colon = system: HCT-116 colon
# MDA-MB-468 breast = system: MDA-MB-468 breast
# HCT-15 colon = system: HCT-15 colon
# SK-MEL-2 melanoma = system: SK-MEL-2 melanoma
# UO-31 renal = system: UO-31 renal
# OVCAR-3 ovarian = system: OVCAR-3 ovarian
# OVCAR-5 ovarian = system: OVCAR-5 ovarian
# UACC-257 melanoma = system: UACC-257 melanoma
# CAKI-1 renal = system: CAKI-1 renal
# MCF7 breast = system: MCF7 breast
# SF-295 CNS = system: SF-295 CNS
# NCI-H226 lung = system: NCI-H226 lung
# HOP-92 NSCLC = system: HOP-92 NSCLC
# MALME-3M melanoma = system: MALME-3M melanoma
# SF-539 CNS = system: SF-539 CNS
# HT29 colon = system: HT29 colon
# BT-549 breast = system: BT-549 breast
# SF-268 CNS = system: SF-268 CNS
# NCI-H522 lung = system: NCI-H522 lung
# NCI-H23 lung = system: NCI-H23 lung
# NCI-H322M lung = system: NCI-H322M lung
# SNB-19 CNS = system: SNB-19 CNS
# HL-60(TB) leukemia = system: HL-60(TB) leukemia
# OVCAR-8 ovarian = system: OVCAR-8 ovarian
# SK-MEL-28 melanoma = system: SK-MEL-28 melanoma
# MDA-MB-231 breast = system: MDA-MB-231 breast
# SR leukemia = system: SR leukemia
# SW-620 colon = system: SW-620 colon
# A549 NSCLC = system: A549 NSCLC
# A498 renal = system: A498 renal
# RXF 393 renal = system: RXF 393 renal
# OVCAR-4 ovarian = system: OVCAR-4 ovarian
# M14 melanoma = system: M14 melanoma
# U251 glioblastoma = system: U251 glioblastoma
# COLO 205 colon = system: COLO 205 colon
# EKVX NSCLC = system: EKVX NSCLC
# SN12C renal = system: SN12C renal
# TK-10 renal = system: TK-10 renal
# K-562 leukemia = system: K-562 leukemia
# SK-OV-3 ovarian = system: SK-OV-3 ovarian
# HOP-62 NSCLC = system: HOP-62 NSCLC
# SK-MEL-5 melanoma = system: SK-MEL-5 melanoma
# DU-145 prostate = system: DU-145 prostate
# PC-3 prostate = system: PC-3 prostate
# 786-0 renal = system: 786-0 renal
# UACC-62 melanoma = system: UACC-62 melanoma
# MOLT-4 leukemia = system: MOLT-4 leukemia
# NCI-H460 NSCLC = system: NCI-H460 NSCLC
# IGROV1 ovarian = system: IGROV1 ovarian
# T-47D breast = system: T-47D breast
# HS 578T breast = system: HS 578T breast
# SNB-75 CNS = system: SNB-75 CNS
compound,measurement,setting,value
C=CC(=O)N1CCN([C@@H](CC2CC2)c2ccc([C@H](C)Nc3ncc4c(n3)N(CC)C(=O)OC4)cc2)CC1,GI50,ACHN renal,13.9 µM
same,TGI,ACHN renal,26.8 µM
same,GI50,MDA-MB-435 melanoma,14.3 µM
same,TGI,MDA-MB-435 melanoma,27.4 µM
same,GI50,KM12 colon,15.1 µM
same,TGI,KM12 colon,28.5 µM
same,GI50,HCT-116 colon,6.57 µM
same,TGI,HCT-116 colon,19.7 µM
same,GI50,MDA-MB-468 breast,2.82 µM
same,TGI,MDA-MB-468 breast,7.69 µM
same,GI50,HCT-15 colon,12 µM
same,TGI,HCT-15 colon,28.9 µM
same,GI50,SK-MEL-2 melanoma,10.3 µM
same,TGI,SK-MEL-2 melanoma,22 µM
same,GI50,UO-31 renal,13.9 µM
same,TGI,UO-31 renal,26.9 µM
same,GI50,OVCAR-3 ovarian,10.2 µM
same,TGI,OVCAR-3 ovarian,21.8 µM
same,GI50,OVCAR-5 ovarian,16.1 µM
same,TGI,OVCAR-5 ovarian,30.4 µM
same,GI50,UACC-257 melanoma,13.8 µM
same,TGI,UACC-257 melanoma,26.8 µM
same,GI50,CAKI-1 renal,11.4 µM
same,TGI,CAKI-1 renal,23.6 µM
same,GI50,MCF7 breast,9.04 µM
same,TGI,MCF7 breast,> 100 µM
same,GI50,SF-295 CNS,35.3 µM
same,TGI,SF-295 CNS,> 100 µM
same,GI50,NCI-H226 lung,15.9 µM
same,TGI,NCI-H226 lung,36.1 µM
same,GI50,HOP-92 NSCLC,8.05 µM
same,TGI,HOP-92 NSCLC,20.7 µM
same,GI50,MALME-3M melanoma,19 µM
same,TGI,MALME-3M melanoma,33.1 µM
same,GI50,SF-539 CNS,11.4 µM
same,TGI,SF-539 CNS,23.5 µM
same,GI50,HT29 colon,14.8 µM
same,TGI,HT29 colon,28 µM
same,GI50,BT-549 breast,5.83 µM
same,TGI,BT-549 breast,18.6 µM
same,GI50,SF-268 CNS,14.4 µM
same,TGI,SF-268 CNS,27.5 µM
same,GI50,NCI-H522 lung,1.36 µM
same,TGI,NCI-H522 lung,4.12 µM
same,GI50,NCI-H23 lung,15.1 µM
same,TGI,NCI-H23 lung,61 µM
same,GI50,NCI-H322M lung,14 µM
same,TGI,NCI-H322M lung,27.3 µM
same,GI50,SNB-19 CNS,17.2 µM
same,TGI,SNB-19 CNS,31.1 µM
same,GI50,HL-60(TB) leukemia,1.82 µM
same,TGI,HL-60(TB) leukemia,3.32 µM
same,GI50,OVCAR-8 ovarian,12.7 µM
same,TGI,OVCAR-8 ovarian,26.1 µM
same,GI50,SK-MEL-28 melanoma,16.6 µM
same,TGI,SK-MEL-28 melanoma,30.2 µM
same,GI50,MDA-MB-231 breast,13.9 µM
same,TGI,MDA-MB-231 breast,26.8 µM
same,GI50,SR leukemia,2.94 µM
same,TGI,SR leukemia,8.8 µM
same,GI50,SW-620 colon,13.5 µM
same,TGI,SW-620 colon,26.4 µM
same,GI50,A549 NSCLC,25.3 µM
same,TGI,A549 NSCLC,> 100 µM
same,GI50,A498 renal,12 µM
same,TGI,A498 renal,24.4 µM
same,GI50,RXF 393 renal,2.52 µM
same,TGI,RXF 393 renal,12.5 µM
same,GI50,OVCAR-4 ovarian,13.3 µM
same,TGI,OVCAR-4 ovarian,26.1 µM
same,GI50,M14 melanoma,14.3 µM
same,TGI,M14 melanoma,27.3 µM
same,GI50,U251 glioblastoma,15.4 µM
same,TGI,U251 glioblastoma,33.4 µM
same,GI50,COLO 205 colon,17.6 µM
same,TGI,COLO 205 colon,31.5 µM
same,GI50,EKVX NSCLC,16.4 µM
same,TGI,EKVX NSCLC,> 100 µM
same,GI50,SN12C renal,16.2 µM
same,TGI,SN12C renal,29.8 µM
same,GI50,TK-10 renal,4.36 µM
same,TGI,TK-10 renal,16.6 µM
same,GI50,K-562 leukemia,3.7 µM
same,TGI,K-562 leukemia,16 µM
same,GI50,SK-OV-3 ovarian,17.9 µM
same,TGI,SK-OV-3 ovarian,37.9 µM
same,GI50,HOP-62 NSCLC,10 µM
same,TGI,HOP-62 NSCLC,27.9 µM
same,GI50,SK-MEL-5 melanoma,13.3 µM
same,TGI,SK-MEL-5 melanoma,30.1 µM
same,GI50,DU-145 prostate,12.7 µM
same,TGI,DU-145 prostate,25.3 µM
same,GI50,PC-3 prostate,10.8 µM
same,TGI,PC-3 prostate,22.7 µM
same,GI50,786-0 renal,12.9 µM
same,TGI,786-0 renal,25.7 µM
same,GI50,UACC-62 melanoma,10.6 µM
same,TGI,UACC-62 melanoma,22.4 µM
same,GI50,MOLT-4 leukemia,1.89 µM
same,TGI,MOLT-4 leukemia,3.43 µM
same,GI50,NCI-H460 NSCLC,5.15 µM
same,TGI,NCI-H460 NSCLC,17 µM
same,GI50,IGROV1 ovarian,10.3 µM
same,TGI,IGROV1 ovarian,22.1 µM
same,GI50,T-47D breast,13.9 µM
same,TGI,T-47D breast,28 µM
same,GI50,HS 578T breast,6.9 µM
same,TGI,HS 578T breast,19.6 µM
same,GI50,SNB-75 CNS,7.22 µM
same,TGI,SNB-75 CNS,20 µM
